# Measurements from article PMC11229374, “Unlocking the potential of protein-derived peptides to target G-quadruplex DNA: from recognition to anticancer activity” (Nucleic Acids Research, 2024).
# Several values for one entry are separate records, joined by “and”; a condition that tells them apart may be missing. Equal entries are not always repeated.
# Experiments:
# c-KIT2 G4 [1] = assay: CD melting, thermal stabilization of c-KIT2 G4; type: binding, human; details: CD melting at 264 nm, 5 mM KH2PO4/K2HPO4 pH 7.0, 20 mM KCl, average of three
# Description: The buffer baseline was subtracted from each spectrum.
# VEGFR-17T G4 = details: CD melting at 264 nm, 2 μM DNA, 1 mol equiv peptide, 5 mM KH2PO4/K2HPO4 pH 7.0, 20 mM KCl, 1°C/min; average of three; T1/2 DNA alone 53.7°C
# Description: CD experiments were carried out using a Jasco J-815 spectropolarimeter equipped with a PTC-423S/15 Peltier temperature controller. G4-forming and duplex-forming DNA molecules were prepared at a concentration of 2 μM in 5 mM KH2PO4/K2HPO4 buffer (pH 7.0) containing 20 mM KCl or LiCl. CD spectra of DNA/peptide mixtures were obtained by adding 1 mol equiv of peptide (stock solutions of 10 mM in H2O) with respect to the oligonucleotide. CD spectra of DNA molecules in the absence and presence of peptide were recorded at 20 and 100°C in the wavelength range of 220−320 nm and averaged over three scans, utilizing a scan rate of 100 nm/min with a 0.5 s response time and 1 nm bandwidth. The buffer baseline was subtracted from each spectrum. Additionally, CD spectra of Myb1^397–415 in the absence and presence of G4s were recorded at 20°C in the 200−250 nm wavelength range using a scan rate of 20 nm/min, with a 4 s response time and 2 nm bandwidth. The G4 spectra were subtracted from the corresponding G4/peptide mixtures to obtain information on the peptide spectrum in the presence of G4. The percentage of secondary structures adopted by the peptide in the absence and presence of the G4s was estimated using the BeStSel software ([26]). CD melting experiments were performed in the absence and presence of peptides (1 or 2 mol equiv) in the 20−100°C temperature range at 1°C/min heating rate, monitoring changes of the CD signal at wavelengths corresponding to the maximum CD intensity for the G4s (264 nm for c-KIT1, c-KIT2, c-MYC, HER2, HT-FANA, BCL-2, and VEGFR-17T; 290 nm for HRAS1, LWDLN1, HT1, and HT2) and at 252 nm for ds12 duplex. The apparent melting temperatures (T1/2) were determined using non-linear curve fitting with OriginLab© 2021 software (OriginLab Corp., MA, USA). ΔT1/2 values were calculated as the difference in the T1/2 values of the DNA structures in the presence and absence of a peptide.
# c-KIT1 G4 = assay: Microscale thermophoresis (MST) binding to c-KIT1 G4; design: species or system human; details: 25°C, 20 nM FITC-labelled peptide, DNA serial dilution, 5 mM KH2PO4/K2HPO4 pH 7.0, 20 mM KCl, 0.1% Tween, 5% DMSO
# Description: (§1) MST experiments were conducted using a Monolith NT.115 instrument (NanoTemper Technologies, Munich, Germany) at 25°C with medium MST power settings. […] DNA samples were also diluted using the same buffer supplemented with 0.1% Tween. During MST experiments, the concentration of the labelled peptide was kept constant at 20 nM, while a serial dilution of the investigated DNA molecules (ranging from 10 or 20 μM) was prepared and mixed with the peptide solution in a 1:1 volume ratio. All the samples, with a final concentration of 5% DMSO, were loaded into standard capillaries (NanoTemper Technologies) for MST measurements. Data analysis was carried out using the MO.Affinity Analysis (v2.3) software provided with the instrument.
# HRAS1 G4 = assay: Microscale thermophoresis (MST) binding to HRAS1 G4; design: species or system human; details: 25°C, 20 nM FITC-labelled peptide, same buffer, n.d. = not determined due to undetectable binding
# Description: as §1
# c-KIT2 G4 [2] = assay: Isothermal titration calorimetry (ITC) with c-KIT2 G4; type: binding, human; details: ITC at 25°C, triplicate
# Description: ITC experiments were conducted at 25°C using a nano-ITC Low Volume calorimeter (TA instruments, Lindon, UT, USA). DNA and peptide solutions were prepared using the same batch of buffer (5 mM KH2PO4/K2HPO4 buffer containing 20 mM KCl, pH 7.0) to prevent differences in buffer composition and pH. Each titration consisted of 25 injections of a 2 μl peptide solution (280–400 μM) sequentially injected using a computer-controlled 50 μl syringe, into the calorimetric vessel (190 μl) containing the oligonucleotide (16–20 μM). A spacing of 300 s between each injection was applied to allow the system to reach the equilibrium. The heat generated by peptide dilution was assessed in a control experiment by injecting the peptide solution into the buffer (Supplementary Figure S30). All measurements were performed in triplicate. Subsequently, the interaction heat for each injection was calculated considering the correction for the heat of peptide dilution. The corrected heat values were plotted as a function of the molar ratio to provide binding isotherms. The isotherms were fitted with a multiple-sites binding model using the NanoAnalyze software (TA instruments) provided with the instrument. This analysis provided the equilibrium binding constant (Ka), binding enthalpy (ΔH°), and stoichiometry of interaction (n). The equilibrium dissociation constant (Kd), Gibbs free-energy change and entropy change were determined using the following relationships: Kd = 1/Ka, ΔG° = -RT ln Ka (R = 8.314 J mol^−1 K^−1, T = 298.15 K), and TΔS° = ΔH° – ΔG°.
substance,measurement,setting,value
Ac-NHTGNSIRHRFRVYLSKRL-NH2 [Myb^397–415],ΔT1/2 of c-KIT2 G4,"c-KIT2 G4 [1]; 2 μM DNA, 1 mol equiv peptide, 1°C/min, T1/2 DNA alone 59.5°C",11.2 °C and 11.2 (±0.2) °C
same,ΔT1/2 of c-KIT2 G4,"c-KIT2 G4 [1]; 2 mol equiv of peptide with respect to G4, 2 μM DNA, T1/2 c-KIT2 alone 59.5°C",17.3 (±0.2) °C
same,ΔT1/2 of VEGFR-17T G4,VEGFR-17T G4,0.2 (±0.2) °C
same,Kd,c-KIT1 G4,0.34 µM
same,Kd for binding to HRAS1 G4,HRAS1 G4,negligible binding
same,Ka,"c-KIT2 G4 [2]; c-KIT2 G4 16–20 μM, peptide 280–400 μM, 5 mM KH2PO4/K2HPO4, 20 mM KCl, pH 7.0",5.0 × 10^6 M^−1 and 5.0 (±0.3) ×10^6 M^−1
same,Kd,"c-KIT2 G4 [2]; c-KIT2 G4, Kd = 1/Ka",0.2 µM
